Earlier results on 1 compound are cited in US20220370511A1, “METHODS AND COMPOSITIONS FOR ENHANCING OVERALL HEALTH AND LONGEVITY IN MAMMALS” (MYOS CORP., priority 2019, published 2022).

In one data set the test system is NAD+ metabolism. The conditions noted are these: chronic supplementation, healthy middle-aged and older adults.
For data set [1] the following is noted: chronic supplementation, healthy middle-aged and older adults.
The conditions of data set [2]: dose of 300 mg/kg/day.

On to `NC(=O)c1ccc[n+]([C@@H]2O[C@H](CO)[C@@H](O)[C@H]2O)c1` [nicotinamide riboside], for which, in the data set on NAD+ metabolism, the “stimulation of NAD+ metabolism” value was “effectively stimulated”. In data set [1], the tolerability result is on record as “well tolerated”. Moreover, the “adverse effects related to nicotinamide riboside” value in data set [2] is on record as “absent”.
